Assay results as given in publication PMC12703428, “Development of Granzyme A Turn‐ON Fluorescent Activity‐Based Probes” (Chembiochem, 2025).
Square brackets hold non-standard residues; d marks the D form. Ends that are not written are not given here. Oic = O=C(O)[C@@H]1C[C@@H]2CCCC[C@@H]2N1; Tic = O=C(O)[C@@H]1Cc2ccccc2CN1

Columns and labels:
Assay type in all cases: biochemical
[1] = tested on: lysates of MDA‐MB‐231, HEK293T, Jurkat, and HeLa cells; experiment: Labeling in lysates of GzmA nonexpressing cells; details: HeLa lysates 1 mg/mL, 1 h, 37 °C
Protocol: (§1) Figure 4 Characterization of qABPs in native proteomes. A) Labeling of GzmA by 5 and 6 in lysates of various cell lines (1 h, 37 °C). B) Stability of 5 and 6 in buffer and cell media (11 h, 37 °C). The hydrolysis of probes was measured by monitoring the production of Cy5 fluorescence signal over time. […] C) Labeling of GzmA by probes 3 –6 in NK‐92 cells (2 h, 37 °C). D) Flow cytometry analysis of protein labeling in NK‐92 cells by 3 –5. […] E) Flow cytometry analysis of concentration‐dependent GzmA labeling in NK‐92 cells and S/N of 5 (5 μM, 2 h, 37 °C). […]
(§2) Briefly, hGzmA (50 nM) was incubated with either inhibitor 1 or 2 (200 nM), and GzmA fluorogenic substrate […] (100 µM) in 50 mM Tris, 150 mM NaCl, 0.01% Triton X-100 (pH 8) for 15 hr at 37 °C. Recorded fluorescence at Ex/Em: 380/460 nm for residual GzmA […]
(§3) Cat. No. CRL-2570) and 4T1 (ATCC Cat. No. CRL-2539) cells were cultured in RPMI supplemented with 10% fetal bovine serum (FBS), 1% penicillin/streptomycin (PS), and 2 mM L-glutamine, while HEK293T and MDA-MB-231 cells (ATCC Cat. No. HTB-26) were cultured in DMEM supplemented likewise as described above. […] The supernatant was collected, and protein concentration was measured using a Pierce BCA protein assay. […]
(§4) C. In-gel fluorescence imaging […]

proteinase 3 (PR3) = target: T1, proteinase 3 (PR3) (Homo sapiens, UniProt P24158); experiment: Cross-reactivity labeling, proteinase 3; details: protease 100 nM, probe 100 nM, 2 h, 37 °C, in-gel fluorescence
T1 sequence (P24158 28-256): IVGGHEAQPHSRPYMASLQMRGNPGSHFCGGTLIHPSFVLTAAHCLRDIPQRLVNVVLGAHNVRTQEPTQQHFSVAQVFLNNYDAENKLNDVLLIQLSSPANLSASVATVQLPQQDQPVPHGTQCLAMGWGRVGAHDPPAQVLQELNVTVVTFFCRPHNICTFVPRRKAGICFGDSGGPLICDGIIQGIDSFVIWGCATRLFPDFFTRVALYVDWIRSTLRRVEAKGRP
Protocol: Protease (100 nM) HNE PR3 GzmK GzmA
Protease (100 nM) GzmA GzmK
Supplementary Figure 2. Cross-reactivity of probes. (A) Labeling of GzmA, GzmK, PR3, and HNE
(100 nM, 2 h, 37 °C) by 100 nM of 5 and 6. (B) Labeling of GzmA and GzmK (100 nM, 2 h, 37 °C) by
100 nM of 3 – 6. (C) Concentration-dependent labeling of GzmA and GzmK (100 nM, 2 h, 37 °C) by 5 and
6. Protein samples were analyzed by SDS-PAGE and in-gel fluorescence scanning for Cy5 signal.
Protein loading was confirmed by SYPRO Ruby staining. […]

[2] = target: T2, GzmA in lysate of NK‐92 cells (Homo sapiens, UniProt P12544); experiment: Labeling of GzmA in NK-92 cell lysate; details: 1 mg/mL lysate, various probe concentrations, 1 h, 37 °C, in-gel fluorescence
T2 construct: host or cells: NK-92
T2 sequence (P12544 29-262): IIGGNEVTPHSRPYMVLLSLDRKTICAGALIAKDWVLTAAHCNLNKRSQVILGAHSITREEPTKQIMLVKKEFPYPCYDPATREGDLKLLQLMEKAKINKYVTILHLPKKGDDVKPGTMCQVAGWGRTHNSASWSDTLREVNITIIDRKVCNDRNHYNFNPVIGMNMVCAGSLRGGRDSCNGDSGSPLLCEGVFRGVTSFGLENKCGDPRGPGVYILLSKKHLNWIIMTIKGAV
Protocol: as §1, §2, §3, §4

Row | Substance | Cross-reactivity in lysates of GzmA nonexpressing cells [1] | Labeling of PR3 (cross-reactivity) (proteinase 3 (PR3)) | Labeling of GzmA in NK-92 lysate [2]
1 | IGNR [compound 5] | no detectable cross‐reactivity | Neither probe 5 nor 6 showed detectable labeling | selectively labeled GzmA in a concentration‐dependent manner at low nanomolar levels
2 | [Tic]G[Oic]R [compound 6] | no detectable cross‐reactivity | Neither probe 5 nor 6 showed detectable labeling | selectively labeled GzmA in a concentration‐dependent manner at low nanomolar levels
